Data: patent US12252457B2, “Compositions and methods for reducing tactile dysfunction, anxiety, and social impairment” (President and Fellows of Harvard College, priority 2018, dated 2025)
“And” between values parts separate entries of the source, which are not always exact repeats. Equal entries are not always repeated. Structures can show the parent of a compound that is named as a salt.

How the values were obtained:
[1] = target: T1, human GABA-A α1β3γ2 ion channels (Homo sapiens, UniProt P14867+P28472); experiment: Human GABA-A receptor IonFlux HT agonist assay (Cl-flux), α1β3γ2; type: cell-based; conditions: for Normalized Peak hGABAA α1β3γ2 Current (%) Agonist, Mean: normalized to EC100 GABA (30 μM)
T1 construct: expressed in transfected cells
T1 sequence (P14867 28-456): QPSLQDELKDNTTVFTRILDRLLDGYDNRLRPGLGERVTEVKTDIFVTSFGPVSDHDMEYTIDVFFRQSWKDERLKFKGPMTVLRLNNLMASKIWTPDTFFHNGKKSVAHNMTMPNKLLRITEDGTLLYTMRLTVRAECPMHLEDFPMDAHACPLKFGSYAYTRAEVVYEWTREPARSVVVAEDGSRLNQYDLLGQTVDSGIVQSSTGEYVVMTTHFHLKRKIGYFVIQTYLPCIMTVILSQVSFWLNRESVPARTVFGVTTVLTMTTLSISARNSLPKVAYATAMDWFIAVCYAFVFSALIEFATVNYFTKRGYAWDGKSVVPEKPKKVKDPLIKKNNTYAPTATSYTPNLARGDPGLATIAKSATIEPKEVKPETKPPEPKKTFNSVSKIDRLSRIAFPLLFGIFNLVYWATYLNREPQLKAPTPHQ
T1 sequence (P28472 26-473): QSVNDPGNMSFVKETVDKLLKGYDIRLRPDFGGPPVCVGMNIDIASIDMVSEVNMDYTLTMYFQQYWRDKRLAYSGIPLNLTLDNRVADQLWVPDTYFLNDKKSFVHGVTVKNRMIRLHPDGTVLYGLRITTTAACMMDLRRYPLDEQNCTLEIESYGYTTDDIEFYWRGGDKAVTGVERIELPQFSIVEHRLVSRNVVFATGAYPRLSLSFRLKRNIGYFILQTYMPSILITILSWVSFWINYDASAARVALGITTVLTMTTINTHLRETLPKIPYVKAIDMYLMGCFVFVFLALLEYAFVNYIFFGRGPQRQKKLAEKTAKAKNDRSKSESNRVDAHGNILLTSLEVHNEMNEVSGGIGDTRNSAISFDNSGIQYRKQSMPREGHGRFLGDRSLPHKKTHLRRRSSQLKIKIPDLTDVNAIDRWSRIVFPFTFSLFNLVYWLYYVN
T1 sequence (P18507 40-467 partner limits assumed): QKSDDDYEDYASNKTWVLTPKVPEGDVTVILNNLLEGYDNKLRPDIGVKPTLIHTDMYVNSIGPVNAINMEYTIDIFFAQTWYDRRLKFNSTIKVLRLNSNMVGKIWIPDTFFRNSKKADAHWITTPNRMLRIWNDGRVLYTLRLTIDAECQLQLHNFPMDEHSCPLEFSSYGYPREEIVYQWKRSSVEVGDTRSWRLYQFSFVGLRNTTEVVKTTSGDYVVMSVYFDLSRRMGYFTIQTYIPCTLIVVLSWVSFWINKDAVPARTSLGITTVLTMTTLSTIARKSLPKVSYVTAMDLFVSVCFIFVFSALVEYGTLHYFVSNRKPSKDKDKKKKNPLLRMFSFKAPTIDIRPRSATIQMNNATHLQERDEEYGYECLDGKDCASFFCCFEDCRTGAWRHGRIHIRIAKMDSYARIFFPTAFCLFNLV
Protocol: Six additions of 0.33% DMSO for 2 seconds were introduced to the cells to act as a time matched vehicle control for the agonist. Note: The test compound was applied over two ‘experimental patterns’ in increasing concentrations. […] Time-matched negative and reference compound data are included for comparison.
The supplied compounds were prepared in DMSO to concentrations that were 300× the final assay concentrations of 0.1, 0.3, 1, 3, 10, 30 and 100 μM. Aliquots were taken out and diluted 300× into external buffer to give the final assay concentration. All wells included a final DMSO concentration of 0.33% including all control wells.
All recordings were obtained from a holding potential of −60 mV. The compound addition sequence that was used for all additions was the same for all assays. […] Each test concentration of compound was applied for 2 seconds followed by 30 seconds wash. The process was repeated with the next ascending concentration of test compound up to a maximum of six concentrations per well (FIG. 14).
Peak inward currents in response to the additions of compound were measured. […] All data were first exported to an Excel compatible data file and then analyzed using Graph Pad Prism software.

[2] = tested on: SNL rats; experiment: Rat spinal nerve ligation (SNL) model of neuropathic pain, Von Frey 50% paw withdrawal threshold; type: in vivo, SD Rat; conditions: for 50% g Threshold, individual animals: 5 mg/kg; for neuropathic pain sensitivity / mechanical hypersensitivity (mechanical allodynia): SNL rats, Von Frey stimulation of hindpaw glabrous skin; for 50% g Threshold, group Mean: n=8
Protocol: Chung surgery were conducted on anesthetized rats. Rats were habituated in the testing environment for 15 minutes before allodynia measurement (2-3 times). Pre-dose baseline were taken on day 9 post surgery. Rats that don't show allodynic response at this point were excluded. SNL rats with a paw withdrawal threshold >4 g. The animals were grouped according to 50% paw withdrawal threshold (g) and weight. The animals were dosed test articles and vehicle according to the dose protocol. On the testing day (Day 9), rats were dosed with testing articles with 16 min interval between groups. Rats were measured for allodynic response at 0.75, 1.5, 3 h time point post dosing. All values will be expressed as mean±S.E.M. The significance of the differences among groups will be evaluated by two-way ANOVA followed by Dunnett's test using graphpad Prism 6 software. A p value of less than 0.05 is considered statistically significant.

[3] = 0 Hour (pre-dose baseline), 5 mpk IP
[4] = printed in the 0.75 Hour column, 5 mpk IP
[5] = printed in the 1.5 Hour column, 5 mpk IP
[6] = printed in the 3 Hour column, 5 mpk IP

Structure (SMILES) | Normalized Peak hGABAA α1β3γ2 Current (%) Agonist, Mean ([1]; 0.1 μM) | Normalized Peak hGABAA α1β3γ2 Current (%) Agonist, Mean ([1]; 0.3 μM) | Normalized Peak hGABAA α1β3γ2 Current (%) Agonist, Mean ([1]; 1 μM) | Normalized Peak hGABAA α1β3γ2 Current (%) Agonist, Mean ([1]; 3 μM) | Normalized Peak hGABAA α1β3γ2 Current (%) Agonist, Mean ([1]; 10 μM) | Normalized Peak hGABAA α1β3γ2 Current (%) Agonist, Mean ([1]; 30 μM) | Normalized Peak hGABAA α1β3γ2 Current (%) Agonist, Mean ([1]; 100 μM) | Von frey test (MEAN ± S.E.M.) [2, 3] | Von frey test (MEAN ± S.E.M.) ([2]; 0.75 Hour, 5 mpk IP) | Von frey test (MEAN ± S.E.M.) ([2]; 1.5 Hour, 5 mpk IP) | Von frey test (MEAN ± S.E.M.) ([2]; 3 Hour, 5 mpk IP) | 50% g Threshold, group Mean [2, 4] | 50% g Threshold, group Mean [2, 5] | 50% g Threshold, group Mean [2, 6] | other results
O=C(O)C1=CCNCC1 [Isoguvacine, isoguvacine] | 0.55% | 1.02% | 1.92% | 4.94% | 21.18% | 53.29% | 79.91% | 2.3 ± 0.33 g | 1.8 ± 0.23 g | 2.0 ± 0.23 g | 4.9 ± 0.64 g | 2.32 g | 1.78 g | 1.97 g | EC50 ([1]; GABAA receptor chloride flux assay, read-out: EC50, activation of α1β3γ2-containing GABAA receptors): 23.3 µM and 19.7 µM; 50% g Threshold, individual animals ([2]; 0 Hour (pre-dose baseline, day 9 post surgery), 5 mpk IP): 0.99 g and 1.10 g and 1.85 g and 2.23 g and 2.81 g and 3.00 g and 3.31 g (2×); 50% g Threshold, individual animals ([2]; 0.75 Hour post dosing, 5 mpk IP): 1.31 g (2×) and 2.37 g (2×) and 2.81 g and 1.56 g (2×) and 0.99 g; 50% g Threshold, individual animals ([2]; 1.5 Hour post dosing, 5 mpk IP): 1.85 g (3×) and 2.37 g and 0.82 g and 2.81 g and 1.56 g and 2.64 g; 50% g Threshold, individual animals ([2]; 3 Hour post dosing, 5 mpk IP): 2.81 g and 6.74 g and 7.91 g and 3.33 g and 5.15 g and 4.34 g and 5.77 g and 3.31 g; analgesia effect ([2]; 3 hour time point, 5 mpk IP): significant analgesia effect; neuropathic pain sensitivity / mechanical hypersensitivity (mechanical allodynia) [2]: reduce neuropathic pain sensitivity; neuropathic pain sensitivity / mechanical hypersensitivity (mechanical allodynia) ([2]; listed as isoguvacine): reduce tactile over-reactivity (mechanical allodynia)
NC1C=C(C(=O)O)CCC1 (stereo not shown) [Compound 5, 3-aminocyclohex-1-enecarboxylic acid hydrochloride] | 0.58% | 0.56% | 0.58% | 0.62% | 0.79% | 0.57% | 0.49% | 2.3 ± 0.34 g | 3.6 ± 0.54 g | 4.1 ± 0.70 g | 4.0 ± 0.79 g | 2.31 g | 3.61 g | 4.09 g | agonism of α1β3γ2-containing GABAA receptor (in words) [1]: not an agonist; 50% g Threshold, individual animals ([2]; 0 Hour (pre-dose baseline, day 9 post surgery), 5 mpk IP, hydrochloride): 0.99 g and 1.10 g and 1.56 g and 2.64 g and 2.81 g (2×) and 3.31 g (2×); 50% g Threshold, individual animals ([2]; 0.75 Hour post dosing, 5 mpk IP, hydrochloride): 3.33 g and 4.12 g and 2.81 g and 1.85 g and 4.34 g and 3.31 g and 2.37 g and 6.74 g; 50% g Threshold, individual animals ([2]; 1.5 Hour post dosing, 5 mpk IP, hydrochloride): 6.74 g (2×) and 5.10 g and 1.85 g and 3.71 g (2×) and 3.31 g and 1.56 g; 50% g Threshold, individual animals ([2]; 3 Hour post dosing, 5 mpk IP, hydrochloride): 6.42 g and 3.33 g and 2.81 g and 2.61 g and 3.71 g and 4.34 g and 0.82 g and 7.91 g; neuropathic pain sensitivity / mechanical hypersensitivity (mechanical allodynia) ([2]; hydrochloride): reduce tactile over-reactivity (mechanical allodynia); neuropathic pain sensitivity / mechanical hypersensitivity (mechanical allodynia) ([2]; listed as compound 5, hydrochloride): reduce neuropathic pain sensitivity
